Assays:
[1] = system: NIH/3T3 cell line - immortalized mouse fibroblasts; experiment: Crystal violet cytotoxicity test in normal cells; format: cell-based; details: summary statement; normal cells NIH/3T3 and PER49
Excerpt: To evaluate the toxicity of the tested compound on normal cells, the NIH/3T3 cell line - immortalized mouse fibroblasts and normal pericytes (PER49) were used.
As a research model, colon cancer and lung cancer cell lines (sensitive lines) were used, including SW620, SW480, and COR-L23, respectively, which are characterized by the KRASG12V gene mutation and lack of other alterations in genes belonging to the RAS protein signaling pathway, as well as a stable line of normal cells (mouse fibroblasts), which serve as a platform for evaluating the impact of tested compounds on non-cancer cells. Below is the result for one of the analyzed cell lines with the mutation. Similar differences in IC50 values compared to normal cells were obtained for the other cell lines mentioned above with the RASG12V mutation.
The effect of molecules on the biology of selected cell lines to assess their cytotoxicity using the IC50 indicator was carried out according to the protocol below: • 1. The cells of the tested lines were seeded in wells of a 96-well plate at specified densities. • 2. After seeding, the cells were subjected to a 24-hour incubation in medium with a 1% and 2.5% addition of serum (sensitive lines) or in medium with a 0.5% addition of serum (normal line). • 3. The cells were exposed to selected molecules at selected concentrations. The control was provided by the culture medium without any added compounds. Concentrations of the tested molecules [uM]: • □ NIH3T3: 500; 250; 125; 62,5; 31,25 • □ SW620: 60; 30; 15; 7,5; 3,75 • 4. After 72 hours of incubation, the culture medium was removed and the cells were washed twice with buffer saline solution (PBS). Then, the cells were incubated for 10 minutes with a 0.1% solution of crystal violet at room temperature (Merck Millipore). • 5. After 10 minutes, the crystal violet solution was removed and the wells of the 96-well plate were washed twice with PBS solution. • 4. 50% ice-cold acetic acid solution was added to each well and incubated again for 10 minutes at room temperature on a shaker at 650 rpm. • 5. Absorbance measurement was performed using a plate reader, at a wavelength of λ = 540 nm

[2] = system: NCI-H1975; experiment: Toxicity against cancer cells expressing wild type RAS; format: cell-based; details: summary statement
Protocol: The results of in vitro analyses were presented in the examples. Commercially available cancer cell lines were used for the studies, including SW480, SW620, and COR-L23, showing endogenous expression of KRASG12V, as well as a cell line with exogenously introduced KRASG12V mutation (using methods of genetic engineering) - the DK-MGEGFRvIIIKRASG12V line. Additionally, the cancer cell line NCI- H1975, characterized by the expression of wild type RASWT proteins, was also analyzed.

Compound	toxicity against normal cells [1]	toxicity against cancer cells expressing normal RAS protein [2]
O=C(Nc1ccc2c(c1)OCCO2)c1ccc2c(c1)C1C3CCC(C3)C1C(c1ccccc1)N2 (stereo not shown) [PER154A]	no toxicity	no toxicity
O=C(Nc1ccc(F)cc1)c1ccc2c(c1)C1C3CCC(C3)C1C(c1ccccc1)N2 (stereo not shown) [PER160A]	no toxicity	no toxicity

— patent EP4574151A1, “INHIBITORS OF G12V-MUTATED RAS PROTEIN TO TREAT CANCER” (Personather Spolka Z Ograniczona Odpowiedzialnoscia, priority 2023, dated 2025)
